The target of assay [1] is Adrenergic receptor alpha-1 (Rattus norvegicus, UniProt P15823+P23944+P43140).
Description: Displacement of [3H]prazosin from rat cerebral cortex alpha1 adrenergic receptor measured after 60 mins by liquid scintillation counting method
The target in assay [2] is Histamine H1 receptor (Cavia porcellus, UniProt P31389).
Description: Displacement of [3H]pyrilamine from guinea pig cerebellum histamine H1 receptor measured after 60 mins by liquid scintillation counting method
Assay [3] deals with 5-hydroxytryptamine receptor 2A (Homo sapiens, UniProt P28223). The assay can be described thus: Antagonist activity at human 5HT2A receptor expressed in CHO-K1 cells assessed as inhibition of 5HT-induced calcium flux incubated for 60 mins at 37 degC followed by 15 mins incubation at room temperature and subsequent 5HT addition by calcium 4 dye based FLIPR assay. Type of assay: functional, cell-based. (In general: A change in cytosolic calcium serves as a functional read-out for many receptors and channels.)

For assay [4], the target named is Sigma non-opioid intracellular receptor 1 (Homo sapiens, UniProt Q99720). The experiment in a line: Binding affinity to sigma 1 receptor (unknown origin).
In assay [5] the target is D(1A) dopamine receptor (Homo sapiens, UniProt P21728). The assay can be described thus: Binding affinity to D1 receptor (unknown origin).
In assay [6] the target is 5-hydroxytryptamine receptor 2C (Rattus norvegicus, UniProt P08909).
Description: Displacement of [3H]mesulergine from rat cerebral cortex 5HT2C receptor measured after 15 mins by liquid scintillation counting method
Assay [7] has as its target 5-hydroxytryptamine receptor 2A (Rattus norvegicus, UniProt P14842). The experiment in a line: biochemical.
In assay [8] the target is Voltage-gated inwardly rectifying potassium channel KCNH2 (Homo sapiens, UniProt Q12809).
Description: Inhibition of human ERG expressed in HEK293 cells by whole-cell patch clamp method
Assay [9] has as its target Sodium-dependent dopamine transporter (Homo sapiens, UniProt Q01959). The assay can be described thus: Binding affinity to DAT (unknown origin).
In assay [10] the target is Sodium-dependent serotonin transporter (Homo sapiens, UniProt P31645). The experiment in a line: Binding affinity to SERT (unknown origin).
For assay [11], the target named is Histamine H3 receptor (Homo sapiens, UniProt Q9Y5N1). The experiment in a line: Binding affinity to H3 receptor (unknown origin).
Assay [12] deals with Sodium-dependent noradrenaline transporter (Homo sapiens, UniProt P23975). The experiment in a line: Binding affinity to NET (unknown origin).
Assay [13] deals with 5-hydroxytryptamine receptor 7 (Rattus norvegicus, UniProt P32305). The experiment in a line: biochemical.
Assay [14] addresses Sigma intracellular receptor 2 (Homo sapiens, UniProt Q5BJF2). The experiment in a line: Binding affinity to sigma 2 receptor (unknown origin).
The target in assay [15] is D(3) dopamine receptor (Homo sapiens, UniProt P35462).
Description: Binding affinity to D3 receptor (unknown origin)
Assay [16] has as its target T1, 5-hydroxytryptamine receptor 1A (Rattus norvegicus, UniProt P19327).
T1 sequence (P19327 whole entry): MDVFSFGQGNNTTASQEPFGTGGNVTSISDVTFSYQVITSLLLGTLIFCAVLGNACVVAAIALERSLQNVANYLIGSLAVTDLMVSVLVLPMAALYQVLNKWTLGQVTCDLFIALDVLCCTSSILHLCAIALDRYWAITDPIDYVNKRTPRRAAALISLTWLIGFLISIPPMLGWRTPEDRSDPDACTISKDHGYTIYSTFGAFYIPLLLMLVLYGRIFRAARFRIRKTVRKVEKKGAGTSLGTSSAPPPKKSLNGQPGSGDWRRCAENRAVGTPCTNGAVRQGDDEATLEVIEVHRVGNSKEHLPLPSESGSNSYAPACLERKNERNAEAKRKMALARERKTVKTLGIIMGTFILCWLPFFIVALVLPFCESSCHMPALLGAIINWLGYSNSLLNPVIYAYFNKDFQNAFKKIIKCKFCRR
The experiment in a line: biochemical.
Description: Displacement of [3H](+)8-OH-DPAT from rat cerebral cortex 5HT1A receptor measured after 30 mins by liquid scintillation counting method

For assay [17], the target named is Adrenergic receptor alpha-2 (Homo sapiens, UniProt P08913+P18825+P18089). The assay can be described thus: Binding affinity to alpha2 adrenergic receptor (unknown origin). In kind it is protein assay.

Where only a bound is given, the exact number is not on record here.

Chain of 5-hydroxytryptamine receptor 7 (P32305 whole entry): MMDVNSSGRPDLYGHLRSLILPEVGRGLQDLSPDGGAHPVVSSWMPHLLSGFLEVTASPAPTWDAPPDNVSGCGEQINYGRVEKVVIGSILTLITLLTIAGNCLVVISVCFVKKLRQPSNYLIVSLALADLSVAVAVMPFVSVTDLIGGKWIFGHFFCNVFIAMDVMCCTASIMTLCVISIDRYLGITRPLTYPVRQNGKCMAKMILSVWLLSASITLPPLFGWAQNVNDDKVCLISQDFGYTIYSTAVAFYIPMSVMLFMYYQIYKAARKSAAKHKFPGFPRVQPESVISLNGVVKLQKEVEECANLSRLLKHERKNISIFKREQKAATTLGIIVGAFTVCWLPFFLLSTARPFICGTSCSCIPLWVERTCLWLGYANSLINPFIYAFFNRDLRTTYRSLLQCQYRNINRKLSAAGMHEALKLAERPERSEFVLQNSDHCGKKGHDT
Chain of Sigma non-opioid intracellular receptor 1 (Q99720 whole entry): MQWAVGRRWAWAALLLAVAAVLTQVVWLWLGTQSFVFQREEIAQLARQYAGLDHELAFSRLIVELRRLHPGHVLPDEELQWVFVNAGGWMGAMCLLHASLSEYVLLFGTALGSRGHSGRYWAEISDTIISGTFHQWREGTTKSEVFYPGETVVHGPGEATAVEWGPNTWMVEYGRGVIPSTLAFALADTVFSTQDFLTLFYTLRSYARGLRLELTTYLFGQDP
Chain of Sodium-dependent dopamine transporter (Q01959 whole entry): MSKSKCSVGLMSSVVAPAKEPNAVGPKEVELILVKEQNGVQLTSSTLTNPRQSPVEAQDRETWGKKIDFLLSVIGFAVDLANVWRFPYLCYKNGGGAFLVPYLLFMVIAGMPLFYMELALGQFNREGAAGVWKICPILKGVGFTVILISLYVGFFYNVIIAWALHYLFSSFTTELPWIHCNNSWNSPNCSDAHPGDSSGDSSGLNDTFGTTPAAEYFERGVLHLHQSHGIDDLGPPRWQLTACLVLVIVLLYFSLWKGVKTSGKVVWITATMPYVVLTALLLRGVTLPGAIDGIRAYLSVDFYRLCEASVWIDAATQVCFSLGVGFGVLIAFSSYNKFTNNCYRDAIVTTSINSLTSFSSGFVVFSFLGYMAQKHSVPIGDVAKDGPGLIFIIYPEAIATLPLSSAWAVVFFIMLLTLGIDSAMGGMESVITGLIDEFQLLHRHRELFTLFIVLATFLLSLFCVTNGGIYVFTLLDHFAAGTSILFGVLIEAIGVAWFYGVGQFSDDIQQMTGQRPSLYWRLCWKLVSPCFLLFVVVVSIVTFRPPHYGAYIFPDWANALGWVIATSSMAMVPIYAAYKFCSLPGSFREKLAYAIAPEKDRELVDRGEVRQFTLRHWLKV
Chain of 5-hydroxytryptamine receptor 2C (P08909 whole entry): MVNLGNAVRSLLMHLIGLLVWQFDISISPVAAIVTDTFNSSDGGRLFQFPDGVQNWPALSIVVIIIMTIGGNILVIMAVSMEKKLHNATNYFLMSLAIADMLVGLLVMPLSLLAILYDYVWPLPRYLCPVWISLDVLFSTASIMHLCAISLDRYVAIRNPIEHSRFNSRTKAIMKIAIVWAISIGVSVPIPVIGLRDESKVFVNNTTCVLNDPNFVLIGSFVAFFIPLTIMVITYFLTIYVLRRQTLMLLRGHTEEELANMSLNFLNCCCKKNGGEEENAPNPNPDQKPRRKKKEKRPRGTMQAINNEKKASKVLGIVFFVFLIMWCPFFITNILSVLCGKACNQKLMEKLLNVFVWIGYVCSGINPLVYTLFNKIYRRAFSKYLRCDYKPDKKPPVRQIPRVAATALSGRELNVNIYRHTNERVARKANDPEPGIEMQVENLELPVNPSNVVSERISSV
Chain of 5-hydroxytryptamine receptor 2A (Homo sapiens, UniProt P28223) (P28223 whole entry): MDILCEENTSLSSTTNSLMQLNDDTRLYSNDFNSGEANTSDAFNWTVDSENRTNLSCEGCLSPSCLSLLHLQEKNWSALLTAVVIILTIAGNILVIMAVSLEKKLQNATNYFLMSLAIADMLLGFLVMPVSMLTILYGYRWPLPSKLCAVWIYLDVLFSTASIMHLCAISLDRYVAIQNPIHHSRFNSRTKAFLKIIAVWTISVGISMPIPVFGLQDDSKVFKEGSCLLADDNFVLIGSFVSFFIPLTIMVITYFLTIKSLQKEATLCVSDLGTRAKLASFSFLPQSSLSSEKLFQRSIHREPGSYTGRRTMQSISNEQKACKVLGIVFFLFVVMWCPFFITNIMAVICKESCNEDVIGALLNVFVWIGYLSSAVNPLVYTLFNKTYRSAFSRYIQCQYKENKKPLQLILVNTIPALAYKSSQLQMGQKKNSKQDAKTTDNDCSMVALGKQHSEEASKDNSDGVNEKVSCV
Chain of D(1A) dopamine receptor (P21728 whole entry): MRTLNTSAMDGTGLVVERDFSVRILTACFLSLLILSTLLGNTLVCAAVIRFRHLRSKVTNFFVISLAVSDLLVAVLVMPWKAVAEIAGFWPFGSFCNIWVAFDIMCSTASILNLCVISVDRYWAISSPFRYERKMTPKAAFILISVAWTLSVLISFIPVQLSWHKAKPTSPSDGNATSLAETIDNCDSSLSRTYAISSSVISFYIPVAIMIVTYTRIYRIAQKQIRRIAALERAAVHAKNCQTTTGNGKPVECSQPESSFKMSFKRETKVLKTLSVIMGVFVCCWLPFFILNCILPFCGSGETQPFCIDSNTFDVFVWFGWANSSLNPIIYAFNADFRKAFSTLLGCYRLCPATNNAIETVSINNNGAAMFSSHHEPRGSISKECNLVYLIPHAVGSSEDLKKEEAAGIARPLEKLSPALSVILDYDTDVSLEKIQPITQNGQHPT
Chain of Sodium-dependent noradrenaline transporter (P23975 whole entry): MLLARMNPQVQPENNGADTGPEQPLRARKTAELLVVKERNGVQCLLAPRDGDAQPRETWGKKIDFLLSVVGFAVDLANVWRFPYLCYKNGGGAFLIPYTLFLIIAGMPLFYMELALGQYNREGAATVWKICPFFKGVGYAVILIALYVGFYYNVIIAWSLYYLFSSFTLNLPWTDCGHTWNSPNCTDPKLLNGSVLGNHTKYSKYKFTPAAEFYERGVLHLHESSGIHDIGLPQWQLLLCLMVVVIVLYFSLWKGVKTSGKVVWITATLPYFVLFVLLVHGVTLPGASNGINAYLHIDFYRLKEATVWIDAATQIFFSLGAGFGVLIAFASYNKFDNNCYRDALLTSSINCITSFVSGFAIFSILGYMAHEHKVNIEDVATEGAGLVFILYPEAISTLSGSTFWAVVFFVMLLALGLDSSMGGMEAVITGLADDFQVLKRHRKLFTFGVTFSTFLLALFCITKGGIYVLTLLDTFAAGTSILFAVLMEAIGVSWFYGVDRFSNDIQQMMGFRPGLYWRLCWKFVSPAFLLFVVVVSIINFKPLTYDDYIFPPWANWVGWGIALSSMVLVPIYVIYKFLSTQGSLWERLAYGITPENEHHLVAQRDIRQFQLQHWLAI
Chain of Histamine H1 receptor (P31389 whole entry): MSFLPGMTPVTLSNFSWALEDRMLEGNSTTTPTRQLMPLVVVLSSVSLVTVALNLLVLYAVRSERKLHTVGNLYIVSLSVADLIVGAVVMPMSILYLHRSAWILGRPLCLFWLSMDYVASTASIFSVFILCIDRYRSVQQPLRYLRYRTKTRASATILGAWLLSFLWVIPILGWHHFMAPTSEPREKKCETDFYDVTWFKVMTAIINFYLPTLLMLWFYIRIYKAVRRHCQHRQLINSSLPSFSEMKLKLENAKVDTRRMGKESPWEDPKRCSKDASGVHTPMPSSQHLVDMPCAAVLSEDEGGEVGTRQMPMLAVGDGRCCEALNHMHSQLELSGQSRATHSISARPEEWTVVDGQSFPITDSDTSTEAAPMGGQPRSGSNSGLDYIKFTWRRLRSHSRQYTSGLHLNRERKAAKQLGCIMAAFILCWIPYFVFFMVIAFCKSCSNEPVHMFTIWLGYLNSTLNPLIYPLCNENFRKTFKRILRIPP
Chain of Sodium-dependent serotonin transporter (P31645 whole entry): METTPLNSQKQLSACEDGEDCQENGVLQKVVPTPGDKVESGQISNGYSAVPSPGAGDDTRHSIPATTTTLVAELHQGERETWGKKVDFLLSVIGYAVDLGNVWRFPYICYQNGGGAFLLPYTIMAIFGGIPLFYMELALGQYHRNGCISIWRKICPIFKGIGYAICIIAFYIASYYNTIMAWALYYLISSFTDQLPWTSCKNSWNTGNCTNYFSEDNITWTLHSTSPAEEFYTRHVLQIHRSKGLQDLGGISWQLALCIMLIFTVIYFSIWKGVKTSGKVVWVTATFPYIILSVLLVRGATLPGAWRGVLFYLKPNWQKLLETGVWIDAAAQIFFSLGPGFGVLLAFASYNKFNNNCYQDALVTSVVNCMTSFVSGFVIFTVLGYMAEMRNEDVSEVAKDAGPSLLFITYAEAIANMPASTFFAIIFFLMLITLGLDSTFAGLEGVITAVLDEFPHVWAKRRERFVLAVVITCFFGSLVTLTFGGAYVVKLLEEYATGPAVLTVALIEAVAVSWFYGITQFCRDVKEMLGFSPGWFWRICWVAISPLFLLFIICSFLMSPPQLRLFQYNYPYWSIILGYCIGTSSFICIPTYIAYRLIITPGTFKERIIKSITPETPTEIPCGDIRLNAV
Chain of D(3) dopamine receptor (P35462 whole entry): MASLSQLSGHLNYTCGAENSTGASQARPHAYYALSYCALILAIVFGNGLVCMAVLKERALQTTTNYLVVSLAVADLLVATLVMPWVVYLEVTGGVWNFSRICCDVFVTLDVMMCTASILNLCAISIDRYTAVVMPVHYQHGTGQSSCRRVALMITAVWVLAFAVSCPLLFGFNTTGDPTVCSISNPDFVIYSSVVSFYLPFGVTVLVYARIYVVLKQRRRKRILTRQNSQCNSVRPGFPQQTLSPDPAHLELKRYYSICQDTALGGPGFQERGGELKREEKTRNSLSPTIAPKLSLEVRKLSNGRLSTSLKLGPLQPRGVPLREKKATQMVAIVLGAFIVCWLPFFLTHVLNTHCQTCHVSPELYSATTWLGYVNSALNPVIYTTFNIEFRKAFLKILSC

In the case of `CN1CCc2ccc(OCCCN3CCC(c4noc5cc(F)ccc45)CC3)cc2C1=O`, the Ki was 991 nM in assay [1]; 1200 nM in [2]; over 1000 nM in assay [4]; over 1000 nM in assay [5]; 1690 nM in assay [6]; 0.65 nM in assay [7]. Further, the Ki was over 1000 nM in assay [9]; over 1000 nM in [10]; over 1000 nM in assay [11]; over 1000 nM in [12]; 4.9 nM in [13]; over 1000 nM in assay [14]. The Ki in assay [15] is 226 nM; in [16], 9.1 nM; in assay [17], over 1000 nM. Further, the results for the IC50 in assay [3] and in [8] were 46.3 nM and 2310 nM, respectively.

For orientation: Ki means a measure of affinity in units of concentration, obtained from inhibition or displacement. Low readings indicate tighter binding, high ones weaker binding. One may read the IC50 as the midpoint of a concentration-inhibition curve.

The values are drawn from ChEMBL document CHEMBL4706549, “Isoquinolinone derivatives as potent CNS multi-receptor D/5-HT/5-HT/5-HT/5-HT agents: Synthesis and pharmacological evaluation” (Eur J Med Chem, 2020).
